Data as given in patent publication US20030186814A1, “Enhanced herbicide composition” (Valent BioSciences Corporation, priority 2002, published 2003).
Where a name gives a salt, the structure may show the parent alone.

Experiments:
[1] = tested on: tobacco; assay: Phytotoxicity rating after foliar spray, tobacco; type: in vivo, Nicotiana tabacum (tobacco); details: alone or with 5 mM NaSA, COC 0.1%, mean rating 1-5, n = 5 plants
Protocol: (§1) In all experiments, deionized ultra-pure water was used in preparing solutions. Spray solutions were used as soon as possible after mixing.
(§2) COC was added to all spray solutions at a rate of 0.10% (v/v). For all treatments containing both an herbicide and a salicylate, these materials were mixed and applied in a single spray solution (commonly known as a tank mix). After spraying, plants were moved to the greenhouse and arranged in a randomized complete block experimental design. Plants were evaluated for phytotoxicity/herbicidal effects after spraying by assessing damage according to the following scale:
(§3) 5=100% leaf area affected (dead)
(§4) All the data were subject to an analysis of variance, and the mean separations were determined with Duncan's multiple range test at α=0.05.

[2] = tested on: NK S2676 Soybean; assay: Phytotoxicity rating after foliar spray, Roundup Ready soybean; details: Table 5, glyphosate-tolerant crop, n = 4 plants
Protocol: as §1, §2, §3, §4
Roundup Ready crops are tolerant to glyphosate. This tolerance is conferred by genetic modification of the crop species by the insertion of a glyphosate-insensitive EPSP synthase.

[3] = tested on: Lambsquarters; assay: Phytotoxicity rating after foliar spray, Lambsquarters; type: in vivo, Chenopodium album (lambsquarter); details: Table 4, alone or with 5 mM NaSA, COC 0.1%, mean rating 1-5, n = 6 plants
Protocol: as §1, §2, §3, §4

[4] = tested on: Giant Foxtail; assay: Phytotoxicity rating after foliar spray, Giant Foxtail; type: in vivo, Setaria faberi (giant foxtail); details: Table 3; glyphosate 0.2% (v/v), alone or with 5 mM NaSA; COC 0.1%; mean rating 1-5; n = 5 plants
Protocol: as §1, §2, §3, §4

[5] = Table 2, glyphosate or Roundup 0.2% (v/v glyphosate)
[6] = glyphosate 0.1% (v/v) + COC 0.1%, mean rating 1-5

O=C(O)CNCP(=O)(O)O [Glyphosate, N-(phosphonomethyl)glycine, monoisopropylamine salt]
Phytotoxicity at 4d ([1]; Table 1, glyphosate 0.04%): 1.2 A
Phytotoxicity at 6d ([1]; Table 1, glyphosate 0.04%): 1.7 BC
Phytotoxicity at 8d ([1]; Table 1, glyphosate 0.04%): 2 B
Phytotoxicity at 11d ([1]; Table 1, glyphosate 0.04%): 3.1 B
Phytotoxicity at 14d ([1]; Table 1, glyphosate 0.04%): 3.6 B
Phytotoxicity at 4d ([1]; Table 1, glyphosate 0.2% (v/v)): 1.5 B
Phytotoxicity at 6d ([1]; Table 1, glyphosate 0.2% (v/v)): 2.2 CD
Phytotoxicity at 8d ([1]; Table 1, glyphosate 0.2% (v/v)): 3.1 D
Phytotoxicity at 11d ([1]; Table 1, glyphosate 0.2% (v/v)): 4.1 D
Phytotoxicity at 14d ([1]; Table 1, glyphosate 0.2% (v/v)): 4.9 C
Phytotoxicity at 5f [1, 5]: 1.5 BC
Phytotoxicity at 2d [1, 5]: 1.3 B
Phytotoxicity at 8d [1, 5]: 3.3 C
Phytotoxicity at 13d [1, 5]: 4.9 B
Phytotoxicity at 1d [2, 6]: 1.6 BC
Phytotoxicity at 4d [2, 6]: 1.8 BC
Phytotoxicity at 6d [2, 6]: 1.9 C
Phytotoxicity at 11d [2, 6]: 1.9 D
Phytotoxicity at 3d ([3]; glyphosate 0.004%): 1.0 A
Phytotoxicity at 7d ([3]; glyphosate 0.004%): 1.3 AB
Phytotoxicity at 11d ([3]; glyphosate 0.004%): 1.3 AB
Phytotoxicity at 3d ([3]; glyphosate 0.02%): 1.0 A
Phytotoxicity at 7d ([3]; glyphosate 0.02%): 1.5 ABC
Phytotoxicity at 11d ([3]; glyphosate 0.02%): 2.1 BC
Phytotoxicity at 3d ([3]; glyphosate 0.04%): 1.0 A
Phytotoxicity at 7d ([3]; glyphosate 0.04%): 1.6 BC
Phytotoxicity at 11d ([3]; glyphosate 0.04%): 2.4 C
Phytotoxicity at 3d ([3]; glyphosate 0.2% (v/v)): 1.4 BC
Phytotoxicity at 7d ([3]; glyphosate 0.2% (v/v)): 2.4 D
Phytotoxicity at 11d ([3]; glyphosate 0.2% (v/v)): 4.0 D
Phytotoxicity at 8d [4]: 3.8 A
Phytoxicity at 6d [4]: 2.0 B
Phytoxicity at 11d [4]: 4.9 B

O=C([O-])c1ccccc1O.[Na+] [NaSA, sodium salicylate]
Phytotoxicity at 4d ([2]; NaSA 5 mM + COC 0.1%, mean rating 1 = no damage to 5 = dead): 1.5 B
